Read-outs that look alike come from different tables or passages of the source.
Assays:
Stability of compounds = type: physicochemical; details: decomposes to purpurin-18 methyl ester (3) and polar baseline material
cell killing = details: cited from earlier work; for activity in photodynamic therapy: in vitro conditions; for photosensitized cell killing: low intensity of red light
tumor = details: cited from earlier work
normal skin = details: comparable drug and light doses; cited from earlier work
[1] = Long wavelength molar extinction coefficient; type: physicochemical; details: in methanol, at 660 nm
Method: Lysyl-chlorin-p6 was prepared by treatment of purpurin 18 methyl ester (obtained from chlorophyll-a) with lysine in a mixture of dichloromethane, pyridine, and water. It was purified using a Waters Associate's C18 SepPak cartridge. Reversed phase analytical high-performance liquid chromatography (HPLC) indicated the product to consist of 60% lysyl chlorin-p6 and 40% chlorin-p6 based on equal absorbance at 403 nm. This mixture is termed "LCP". The long wavelength molar extinction coefficient of lysyl-chlorin-p6 in methanol was 39,600 at 660 nm.

Water solubility = type: physicochemical

## C=Cc1c(C)c2cc3nc(c(C(=O)O)c4[nH]c(cc5nc(cc1[nH]2)C(C)=C5CC)c(C)c4C(=O)NCCCC)[C@@H](CCC(=O)OC)[C@@H]3C [(VII), chlorin-p6-6-N-butylamide-7-methyl ester]
Stability of compounds
  stability: not very stable and readily decomposed

## C=Cc1c(C)c2cc3nc(c(C(=O)O)c4[nH]c(cc5nc(cc1[nH]2)C(C)=C5CC)c(C)c4C(=O)O)[C@@H](CCC(=O)O)[C@@H]3C [chlorin-p6]
Cell killing
  activity in photodynamic therapy: active in photodynamic therapy
  photosensitized cell killing: potent photosensitizers which promote cell killing

## C=Cc1c(C)c2cc3nc(c(CC(=O)N[C@@H](CC(=O)[O-])C(=O)[O-])c4[nH]c(cc5nc(cc1[nH]2)C(C)=C5CC)c(C)c4C(=O)[O-])[C@@H](CCC(=O)[O-])[C@@H]3C.[Na+].[Na+].[Na+].[Na+] [MACE, mono-L-aspartyl-chlorin e6]
tumor; 24 hours between drug administration and light
  tumor cures: ineffective at inducing tumor cures
tumor; administered 4-6 hours prior to light exposure
  tumor cures: PDT induced tumor cures were obtained
Normal skin
  level of PDT induced normal skin damage vs HpD: significantly lesser

## C=Cc1c(C)c2cc3nc(c4c5[nH]c(cc6nc(cc1[nH]2)C(C)=C6CC)c(C)c5C(=O)OC4=O)[C@@H](CCC(=O)O)[C@@H]3C [Purpurin-18]
Cell killing
  activity in photodynamic therapy: active in photodynamic therapy
  photosensitized cell killing: potent photosensitizers which promote cell killing

## C=Cc1c(C)c2cc3nc(c(C(=O)O)c4[nH]c(cc5nc(cc1[nH]2)C(C)=C5CC)c(C)c4C(=O)NCCCCC(N)C(=O)O)[C@@H](CCC(=O)OC)[C@@H]3C (stereo partly shown) [(II), chlorin-p6 6-N^ε -lysylamide-7-methyl ester]
[1]
  long wavelength molar extinction coefficient: 39,600
Water solubility
  solubility in water: well soluble in water
